Experimental data taken from ChEMBL document CHEMBL3046797, “Structure-activity relationships of trichothecene toxins in an Arabidopsis thaliana leaf assay” (J Agric Food Chem, 2007).

Key:
Type in all cases: organism-based
[1] = test system: Arabidopsis thaliana; assay: Phytotoxicity against Arabidopsis thaliana Col-4 leaves assessed as induction of leaf death at 100 uM […] by detached leaf assay; conditions: in vivo
[2] = test system: Arabidopsis thaliana; assay: Phytotoxicity against Arabidopsis thaliana Col-4 leaves assessed as induction of chlorosis at 100 uM […] by detached leaf assay; conditions: in vivo, 1176 h
[3] = test system: Arabidopsis thaliana; assay: Phytotoxicity against Arabidopsis thaliana Col-4 leaves assessed as induction of chlorosis, shriveling or death of leaves […] by detached leaf assay; conditions: in vivo
[4] = Phytotoxicity against Arabidopsis thaliana Col-4 leaves assessed as induction of leaf death after 7 weeks post compound application by detached leaf assay; conditions: Col-4, arabidopsis thaliana, read-out: LD50
[5] = test system: Arabidopsis thaliana; assay: Phytotoxicity against Arabidopsis thaliana Col-4 leaves assessed as induction of leaf death at 50 uM […] by detached leaf assay; conditions: in vivo
[6] = test system: Arabidopsis thaliana; assay: Phytotoxicity against Arabidopsis thaliana Col-4 leaves assessed as induction of leaf death at 10 uM […] by detached leaf assay; conditions: in vivo
[7] = test system: Arabidopsis thaliana; assay: Phytotoxicity against Arabidopsis thaliana Col-4 leaves assessed as induction of chlorosis at 50 uM […] by detached leaf assay; conditions: in vivo, 1176 h
[8] = test system: Arabidopsis thaliana; assay: Phytotoxicity against Arabidopsis thaliana Col-4 leaves assessed as induction of chlorosis at 10 uM […] by detached leaf assay; conditions: in vivo

| Structure (SMILES) | ED50 [3] | LC50 at 1176 h [4] | further results |
| --- | --- | --- | --- |
| C=C1CCC[C@]1(C)[C@]1(C)CC=C(C)CC1 [TRICHODIENE] | > 100 µM | – | Activity [1]: 3%; Activity [2]: 10% |
| CC(=O)OC[C@]12CCC(C)=C[C@H]1O[C@@H]1[C@H](OC(C)=O)C[C@@H](OC(C)=O)[C@@]2(C)[C@@]12CO2 [3,4,15-TRIACETOXYSCIRPENOL] | 6.7 µM | – | – |
| CC1=C[C@H]2O[C@@H]3[C@H](O)[C@@H](O)[C@](C)([C@@]2(CO)[C@H](O)C1=O)[C@]31CO1 [NIVALENOL] | > 100 µM | > 100 µM | Activity [2]: 10% |
| CC(=O)OC[C@]12[C@H](O)C(=O)C(C)=C[C@H]1O[C@@H]1[C@H](OC(C)=O)C[C@@H](O)[C@@]2(C)[C@@]12CO2 [3,15-DIACETYLNIVALENOL] | 2.2 µM | 4.3 µM | – |
| CC1=C[C@H]2O[C@@H]3[C@H](O)C[C@@H](O)[C@](C)([C@@]2(CO)CC1)[C@@]31CO1 [SCIRPENTRIOL] | 53.6 µM | – | – |
| CC1=C[C@H]2O[C@@H]3[C@H](O)C[C@](C)([C@@]2(CO)[C@H](O)C1=O)[C@]31CO1 [DEOXYNIVALENOL] | 3.8 µM | 23 µM | – |
| CC(=O)O[C@@H]1C[C@]2(C)[C@@]3(CO)[C@H](O)C(=O)C(C)=C[C@H]3O[C@H]1[C@@]21CO1 [3-ACETYLDEOXYNIVALENOL] | 3.4 µM | 18.7 µM | – |
| CC1=C[C@H]2O[C@@H]3[C@H](O)CC[C@](C)([C@@]2(CO)CC1)[C@@]31CO1 [3,15-DIDEACETYLCALONECTRIN] | 90.1 µM | – | – |
| CC(=O)OC[C@]12[C@H](O)C(=O)C(C)=C[C@H]1O[C@@H]1[C@H](OC(C)=O)CC[C@@]2(C)[C@@]12CO2 [3,15-DIACETYLDEOXYNIVALENOL] | 10 µM | 28.2 µM | – |
| CC(=O)O[C@@H]1C[C@@H](O)[C@H]2O[C@@H]3C=C(C)C(=O)[C@@H](O)[C@]3(CO)[C@]1(C)[C@@]21CO1 [4-ACETYLNIVALENOL] | 16.1 µM | – | – |
| CC1=C[C@H]2O[C@@H]3[C@H](O)CC[C@](C)([C@@]2(C)CC1)[C@@]31CO1 [ISOTRICHODERMOL] | 3.5 µM | – | – |
| CC(=O)OC[C@]12[C@H](O)C(=O)C(C)=C[C@H]1O[C@@H]1[C@H](O)C[C@@]2(C)[C@]12CO2 [15-ACETYLDEOXYNIVALENOL] | 1.3 µM | 4 µM | – |
| CC(=O)O[C@@H]1CC[C@]2(C)[C@@]3(CO)CCC(C)=C[C@H]3O[C@H]1[C@]21CO1 [15-DEACETYLCALONECTRIN] | > 100 µM | – | Activity [2]: 50% |
| CC1=CC(O)[C@@](C)([C@@]2(C)C[C@@H](O)[C@@H](O)C23CO3)CC1 (stereo partly drawn) [ISOTRICHOTRIOL] | > 100 µM | – | Activity [5]: 10%; Activity [6]: 10%; Activity [7]: 10%; Activity [8]: 10%; Activity [1]: 10%; Activity [2]: 10% |
| CC(=O)O[C@@H]1CC[C@]2(C)[C@@]3(C)CCC(C)=C[C@H]3O[C@H]1[C@]21CO1 [ISOTRICHODERMIN] | 8.6 µM | 16.1 µM | – |
| CC(=O)OC[C@]12CCC(C)=C[C@H]1O[C@@H]1[C@H](O)CC[C@@]2(C)[C@@]12CO2 [3-DEACETYLCALONECTRIN] | 7.6 µM | – | – |
